Results as given in patent publication US20110152090A1, “HERBICIDAL COMPOSITIONS COMPRISING FLUFENACET” (Bayer CropScience AG, priority 2009, published 2011).

Key:
Format in all cases: in vivo
[1] = test system: APESV (Apera Spica-venti); experiment: Greenhouse trial: different sowing depths, PE application (test method 10); details: g of AS/ha: (A) 90, (B) 1200, (C) 90
Method: (§1) In the standard design of the test, seeds of various broad-leaved weed and weed grass biotypes (origins) were sown in a 8-13 cm diameter pot filled with natural soil of a standard field soil (loamy silt; non-sterile) and covered with a covering soil layer of about 1 cm. The pots were then cultivated in a greenhouse (12-16 h of light, temperature day 20-22° C., night 15-18° C.) until the time of application. The pots were treated on a laboratory track sprayer with spray liquors comprising the compositions according to the invention, mixtures of the prior art or components used individually. Application of the active compounds or active compound combinations formulated as WG, WP, EC or otherwise was carried out at the appropriate growth stages of the plants. The application rate for the spray application was 100-600 l of water/ha. After the treatment, the plants were returned to the greenhouses.
(§2) About 3 weeks after the application, the soil action or/and foliar action was assessed visually according to a scale of 0-100% in comparison to an untreated comparative group: 0%=no noticeable effect compared to the untreated comparative group; 100%=full effect compared to the untreated comparative group.
(§3) (notes: the term “seeds” also includes vegetative propagation forms such as, for example, rhizome pieces; abbreviations used: h light=hours of illumination, g of AS/ha=gram of active substance per hectare, l/ha=liter per hectare, S=sensitive, R=resistant) • 1. Pre-emergence action against weeds: seeds of various broad-leaved weed and weed grass biotypes (origins) were sown in a 8-13 cm diameter pot filled with natural soil of a standard field soil (loamy silt; non-sterile) and covered with a covering soil layer of about 1 cm. The pots were then cultivated in a greenhouse (12-16 h of light, temperature day 20-22° C., night 15-18° C.) until the time of application. The pots were treated at the BBCH stage 00-10 of the seeds/plants on a laboratory track sprayer with spray liquors comprising the compositions according to the invention, mixtures or components used individually, as WG, WP, EC or other formulations. The application rate for the spray application was 100-600 l of water/ha. After the treatment, the plants were returned to the greenhouses and, when required, treated with fertilizer and watered. • 2. Post-emergence action against weeds: seeds of various broad-leaved weed and weed grass biotypes (origins) were sown in a 8-13 cm diameter pot filled with natural soil of a standard field soil (loamy silt; non-sterile) and covered with a covering soil layer of about 1 cm. The pots were then cultivated in a greenhouse (12-16 h of light, temperature day 20-22° C., night 15-18° C.) until the time of application. The pots were treated at various BBCH stages between 11-25 of the seeds/plants, i.e. generally between two to three weeks after the start of the cultivation, on a laboratory track sprayer with spray liquors comprising the compositions according to the invention, mixtures or components used individually, as WG, WP, EC or other formulations. The application rate for the spray application was 100-600 l of water/ha. After the treatment, the plants were returned to the greenhouses and, when required, treated with fertilizer and watered. • 3. Pre-emergence action against weeds with and without incorporation of active compound: seeds of various broad-leaved weed and weed grass biotypes (origins) were sown in a 8-13 cm diameter pot filled with natural soil of a standard field soil (loamy silt; non-sterile). […]

[2] = test system: MATCH (Matricaria chamomilla); experiment: as above; details: g of AS/ha: (A) 90, (B) 1200, (C) 90
Method: as §1, §2, §3

[3] = test system: HORVS (Hordeum vulgare, summer barley); experiment: Greenhouse trial: pre-sowing application vs PE application (test method 6), crop, PE part; details: PE application; g of AS/ha: (A) 90, (B) 1200, (C) 90
Method: as §1, §2
(§4) (notes: the term “seeds” also includes vegetative propagation forms such as, for example, rhizome pieces; abbreviations used: h light=hours of illumination, g of AS/ha=gram of active substance per hectare, l/ha=liter per hectare, S=sensitive, R=resistant) • 1. Pre-emergence action against weeds: seeds of various broad-leaved weed and weed grass biotypes (origins) were sown in a 8-13 cm diameter pot filled with natural soil of a standard field soil (loamy silt; non-sterile) and covered with a covering soil layer of about 1 cm. The pots were then cultivated in a greenhouse (12-16 h of light, temperature day 20-22° C., night 15-18° C.) until the time of application. […]

LOLPE (Lolium perenne) [4] = experiment: Greenhouse trial: pre-sowing application vs PE application (test method 6)
Method: as §1, §2, §3

AVEFA (Avena fatua) [5] = experiment: as above
Method: as §1, §2, §3

LOLPE (Lolium perenne) [6] = experiment: Greenhouse trial: different soil types (test method 8); details: g of AS/ha: (A) 120, (B) 1200, (C) 90
Method: as §1, §2, §3

[7] = test system: MATCH (Matricaria chamomilla); experiment: as above; details: g of AS/ha: (A) 120, (B) 1200, (C) 90
Method: as §1, §2, §3

[8] = test system: HORVS (Hordeum vulgare, summer barley); experiment: Greenhouse trial: different soil types (test method 8), crop; details: g AS/ha: (A) 120, (B) 1200, (C) 90
Method: as §1, §2, §3

STEME (Stellaria media) [9] = experiment: Greenhouse trial: PO application (test method 2); details: g of AS/ha: (A) 120, (B) 1600, (C) 120
Method: as §1, §2, §3

[10] = test system: APESV (Apera Spica-venti); experiment: Greenhouse trial: PO application (test method 2); details: g of AS/ha: (A) 120, (B) 1600, (C) 120
Method: as §1, §2, §3

POAAN (Poa annua) [11] = experiment: Greenhouse trial: PO application (test method 2); details: g of AS/ha: (A) 120, (B) 1600, (C) 120
Method: as §1, §2, §3

[12] = test system: HORVS (Hordeum vulgare, summer barley); experiment: Greenhouse trial: selective PO action (test method 5); details: PO application; g of AS/ha: (A) 120, (B) 1600, (C) 120
Method: as §1, §2, §4

[13] = test system: TRZAS (Triticum aestivum, summer wheat); experiment: Greenhouse trial: pre-sowing application vs PE application (test method 6), crop, pre-sowing part; details: application 7 days prior to sowing; g AS/ha: (A) 90, (B) 1200, (C) 90
Method: as §1, §2, §4

STEME (Stellaria media) [14] = experiment: Greenhouse trial: PE soil application vs incorporation into the soil (test methods 1, 3); details: g of AS/ha: (A) 90, (B) 1200, (C) 90, (D) 300
Method: as §1, §2, §3

POAAN (Poa annua) [15] = experiment: as above; details: g of AS/ha: (A) 90, (B) 1200, (C) 90, (D) 300
Method: as §1, §2, §3

LOLPE (Lolium perenne) [16] = experiment: Greenhouse trial: different irrigation systems (test method 7); details: g of AS/ha: (A) 120, (B) 1200, (C) 90
Method: as §1, §2, §3

[17] = test system: MATCH (Matricaria chamomilla); experiment: as above; details: g of AS/ha: (A) 120, (B) 1200, (C) 90
Method: as §1, §2, §3

AVEFA (Avena fatua) [18] = experiment: as above; details: g of AS/ha: (A) 120, (B) 1200, (C) 90
Method: as §1, §2, §3

[19] = test system: STEME (Stellaria media), sensitive and resistant; experiment: Greenhouse trial: resistant biotypes, PE application (test method 9); details: g of AS/ha: (A) 90, (B) 1200, (C) 90, iodosulfuron 10
Method: as §1, §2, §3

[20] = test system: LOLSS (Lolium species), sensitive and resistant; experiment: as above; details: g of AS/ha: (A) 90, (B) 1200, (C) 90, iodosulfuron 10
Method: as §1, §2, §3

[21] = test system: MATCH (Matricaria chamomilla), sensitive and resistant; experiment: as above; details: g of AS/ha: (A) 90, (B) 1200, (C) 90, iodosulfuron 10
Method: as §1, §2, §3

[22] = test system: TRZAS (Triticum aestivum, summer wheat); experiment: Greenhouse trial: crop selectivity, PE soil application vs incorporation (test methods 3, 4); details: g of AS/ha: (A) 90, (B) 1200, (C) 90, (D) 300
Method: as §1
About 3 weeks after the application, the soil action or/and foliar action was assessed visually according to a scale of 0-100% in comparison to an untreated comparative group: 0%=no noticeable effect compared to the untreated comparative group; 100%=full effect compared to the untreated comparative group. […]

[23] = PE application, g of AS/ha: (A) 90, (B) 1200, (C) 90
[24] = application 7 days prior to sowing, g AS/ha: (A) 90, (B) 1200, (C) 90

In the case of `O=C(Nc1ccc(F)cc1F)c1cccnc1Oc1cccc(C(F)(F)F)c1` [(C) diflufenican, N-(2,4-difluorophenyl)-2-[3-(trifluoromethyl)phenoxy]-3-pyridinecarboxamide], the “activity APESV 5 mm (visual scale 0-100%)” value ([1]; sowing depth 5 mm) is reported as 5%, the “activity APESV 20 mm (visual scale 0-100%)” value ([1]; sowing depth 20 mm) is reported as 5% and the “activity MATCH 5 mm (visual scale 0-100%)” value ([2]; sowing depth 5 mm) is reported as 60%. For the same compound, the “activity MATCH 20 mm (visual scale 0-100%)” value ([2]; sowing depth 20 mm) was 70%, the “activity on crop HORVS (visual scale 0-100%)” value [3] was 5% and the “activity LOLPE (visual scale 0-100%)” value (LOLPE (Lolium perenne) [4]; [23]) was 20%. For the same compound, the “activity LOLPE (visual scale 0-100%)” value (LOLPE (Lolium perenne) [4]; [24]) was 10%, the “activity AVEFA (visual scale 0-100%)” value (AVEFA (Avena fatua) [5]; [23]) was 30% and the “activity AVEFA (visual scale 0-100%)” value (AVEFA (Avena fatua) [5]; [24]) was 10%. The “activity LOLPE IU soil (visual scale 0-100%)” value (LOLPE (Lolium perenne) [6]; IU soil) was 45%, the “activity LOLPE IU/EC73 soil (visual scale 0-100%)” value (LOLPE (Lolium perenne) [6]; IU/EC73 soil) was 0% and the “activity MATCH IU soil (visual scale 0-100%)” value ([7]; IU soil) was 40%. The “Difference of the soil types, MATCH” value ([7]; IU/EC73 soil vs IU soil) was −5%, the “activity MATCH IU/EC73 soil (visual scale 0-100%)” value ([7]; IU/EC73 soil) was 35% and the “activity on crop HORVS IU soil (visual scale 0-100%)” value ([8]; IU soil) was 0%. The “activity on crop HORVS IU/EC73 soil (visual scale 0-100%)” value ([8]; IU/EC73 soil) was 0%, the “activity STEME (visual scale 0-100%)” value (STEME (Stellaria media) [9]) was 30% and the “activity APESV (visual scale 0-100%)” value [10] was 5%. For the same compound, the “activity POAAN (visual scale 0-100%)” value (POAAN (Poa annua) [11]) was 5%, the “activity on crop HORVS (visual scale 0-100%)” value [12] was 5% and the “activity on crop TRZAS (visual scale 0-100%)” value [13] was 5%. For the same compound, the “activity STEME (visual scale 0-100%)” value (STEME (Stellaria media) [14]; PE application) was 50%, the “activity STEME (visual scale 0-100%)” value (STEME (Stellaria media) [14]; incorporation into the soil) was 95% and the “activity POAAN (visual scale 0-100%)” value (POAAN (Poa annua) [15]; PE application) was 70%. For the same compound, the “activity POAAN (visual scale 0-100%)” value (POAAN (Poa annua) [15]; incorporation into the soil) was 92%, the “activity LOLPE (visual scale 0-100%)” value (LOLPE (Lolium perenne) [16]; irrigation from above) was 20% and the “activity LOLPE (visual scale 0-100%)” value (LOLPE (Lolium perenne) [16]; irrigation from below) was 20%. The “activity MATCH (visual scale 0-100%)” value ([17]; irrigation from above) was 0%, the “activity MATCH (visual scale 0-100%)” value ([17]; irrigation from below) was 50% and the “activity AVEFA (visual scale 0-100%)” value (AVEFA (Avena fatua) [18]; irrigation from above) was 50%. For the same compound, the “activity AVEFA (visual scale 0-100%)” value (AVEFA (Avena fatua) [18]; irrigation from below) was 30%, the “activity STEME resistant (visual scale 0-100%)” value ([19]; resistant biotype) was 50% and the “activity STEME sensitive (visual scale 0-100%)” value ([19]; sensitive biotype) was 70%. For the same compound, the “activity LOLSS resistant (visual scale 0-100%)” value ([20]; resistant biotype) was 20%, the “activity LOLSS sensitive (visual scale 0-100%)” value ([20]; sensitive biotype) was 80% and the “activity MATCH resistant (visual scale 0-100%)” value ([21]; resistant biotype) was 30%. The “activity MATCH sensitive (visual scale 0-100%)” value ([21]; sensitive biotype) was 30%, the “activity on crop TRZAS (visual scale 0-100%)” value ([22]; PE application) was 0% and the “activity on crop TRZAS (visual scale 0-100%)” value ([22]; incorporation into the soil) was 30%.
